Source: ChEMBL document CHEMBL4251597, “Discovery and evolution of aloperine derivatives as a new family of HCV inhibitors with novel mechanism” (Eur J Med Chem, 2018)
Active and inactive are the calls of the source.

Key:
[1] = system: Hepatitis C virus; assay: Antiviral activity against HCV J6/JFH/JC-1 infected in human Huh7.5 cells harboring NS3/4A A156T mutant assessed as inhibition of viral core protein levels at 20 uM treated with fresh media containing compound every 2 days by Western blot method; type: functional, organism-based; conditions: Hepacivirus hominis
[2] = system: Hepatitis C virus; assay: Antiviral activity against HCV infected in human GS4.3 cells assessed as inhibition of viral core protein levels at 20 uM treated with fresh media containing compound every 2 days measured after 6 days by Western blot method; type: functional, organism-based; conditions: Hepacivirus hominis
[3] = system: Hepatitis C virus; assay: Antiviral activity against HCV J6/JFH/JC-1 infected in human Huh7.5 cells assessed as inhibition of NS3/4A levels at 20 uM incubated for 2 to 24 hrs measured within 72 hrs by Western blot method; type: functional, organism-based; conditions: Hepacivirus hominis
[4] = system: Hepatitis C virus; assay: Antiviral activity against HCV J6/JFH/JC-1 infected in human Huh7.5 cells assessed as inhibition of NS3/4A D168V mutant levels at 20 uM treated with fresh media containing compound every 2 days by Western blot method; type: functional, organism-based; conditions: Hepacivirus hominis
[5] = Half life in mouse at 25 mg/kg, po after 0.25 to 6 hrs; type: ADME, organism-based; conditions: in vivo
[6] = AUC (0 to t) in mouse at 25 mg/kg, po after 0.25 to 6 hrs; type: ADME, organism-based; design: time upper 6 hr, time lower 0.25 hr, dose 25 mg/kg, route oral; conditions: in vivo
[7] = system: Hepatitis C virus; assay: Antiviral activity against HCV J6/JFH/JC-1 infected in human Huh7.5 cells assessed as inhibition of NS3/4A levels after 72 hrs by Western blot method; type: functional, organism-based; conditions: Hepacivirus hominis
[8] = Selectivity index, ratio of CC50 for human Huh7.5 cells to EC50 for HCV J6/JFH/JC-1; type: toxicity; conditions: read-out: Ratio CC50/EC50
[9] = system: Hepatitis C virus; assay: Antiviral activity against HCV infected in human GS4.3 cells assessed as inhibition of NS3/4A levels at 20 uM treated with fresh media containing compound every 2 days measured after 6 days by Western blot method; type: functional, organism-based; conditions: Hepacivirus hominis
[10] = system: Hepatitis C virus; assay: Antiviral activity against 22.5 to 90 IU/cell of HCV J6/JFH/JC-1 infected in human Huh7.5 cells assessed as inhibition of viral core protein levels at 20 uM treated with fresh media containing compound every 2 days by Western blot method; type: functional, organism-based; conditions: Hepacivirus hominis
[11] = system: Hepatitis C virus; assay: Antiviral activity against HCV J6/JFH/JC-1 infected in human Huh7.5 cells assessed as inhibition of viral core protein levels at 0.5 uM by Western blot method; type: functional, organism-based; conditions: Hepacivirus hominis, TDE = time-dependent effect
[12] = system: Hepatitis C virus; assay: Antiviral activity against HCV J6/JFH/JC-1 infected in human Huh7.5 cells assessed as inhibition of NS3/4A protein levels at 0.5 uM by Western blot method; type: functional, organism-based; conditions: Hepacivirus hominis, TDE = time-dependent effect
[13] = system: Hepatitis C virus; assay: Antiviral activity against HCV J6/JFH/JC-1 infected in human Huh7.5 cells assessed as inhibition of viral core protein levels after 72 hrs by Western blot method; type: functional, organism-based; conditions: Hepacivirus hominis
[14] = system: Hepatitis C virus; assay: Antiviral activity against HCV J6/JFH/JC-1 infected in human Huh7.5 cells assessed as inhibition of viral core protein levels at 10 uM treated with fresh media containing compound every 2 days in presence of NS5B inhibitor sofosbuvir by Western blot method; type: functional, organism-based; conditions: Hepacivirus hominis
[15] = Cytotoxicity against human Huh7.5 cells after 72 hrs by MTT assay; type: cell-based
[16] = system: Hepatitis C virus; assay: Antiviral activity against HCV J6/JFH/JC-1 infected in human Huh7.5 cells assessed as inhibition of viral core protein levels at 20 uM incubated for 2 to 24 hrs measured within 72 hrs by Western blot method; type: functional, organism-based; conditions: Hepacivirus hominis
[17] = system: Hepatitis C virus; assay: Antiviral activity against HCV J6/JFH/JC-1 infected in human Huh7.5 cells assessed as inhibition of NS3/4A levels at 20 uM preincubated for 2 hrs followed addition of Huh7.5 cells for 4 hrs measured within 72 hrs by Western blot method; type: functional, organism-based; conditions: Hepacivirus hominis
[18] = Acute toxicity in po dosed Kunming mouse measured for 7 days; type: organism-based; conditions: in vivo
[19] = Tmax in mouse at 25 mg/kg, po after 0.25 to 6 hrs; type: ADME, organism-based; conditions: in vivo
[20] = system: Hepatitis C virus; assay: Antiviral activity against HCV J6/JFH/JC-1 infected in human Huh7.5 cells harboring NS3/4A D168V mutant assessed as inhibition of viral core protein levels at 20 uM treated with fresh media containing compound every 2 days by Western blot method; type: functional, organism-based; conditions: Hepacivirus hominis
[21] = system: Hepatitis C virus; assay: Antiviral activity against HCV J6/JFH/JC-1 infected in human Huh7.5 cells assessed as inhibition of viral RNA replication after 72 hrs by qRT-PCR method; type: functional, organism-based, Hepacivirus hominis; conditions: J6/JFH/JC-1, Huh7.5, 72 h
[22] = system: Hepatitis C virus; assay: Antiviral activity against HCV J6/JFH/JC-1 infected in human Huh7.5 cells assessed as inhibition of NS3/4A levels at 10 uM treated with fresh media containing compound every 2 days in presence of NS3/4A inhibitor simeprevir by Western blot method; type: functional, organism-based; conditions: Hepacivirus hominis
[23] = system: Hepatitis C virus; assay: Antiviral activity against HCV J6/JFH/JC-1 infected in human Huh7.5 cells assessed as inhibition of viral core protein levels at 10 uM treated with fresh media containing compound every 2 days in presence of NS3/4A inhibitor simeprevir by Western blot method; type: functional, organism-based; conditions: Hepacivirus hominis
[24] = system: Hepatitis C virus; assay: Antiviral activity against 22.5 to 90 IU/cell of HCV J6/JFH/JC-1 infected in human Huh7.5 cells assessed as inhibition of NS3/4A levels at 20 uM treated with fresh media containing compound every 2 days by Western blot method; type: functional, organism-based; conditions: Hepacivirus hominis
[25] = MRT in mouse at 25 mg/kg, po after 0.25 to 6 hrs; type: ADME, organism-based; conditions: in vivo
[26] = Cmax in mouse at 25 mg/kg, po after 0.25 to 6 hrs; type: ADME, organism-based; design: dose 25 mg/kg, route oral; conditions: in vivo
[27] = system: Hepatitis C virus; assay: Antiviral activity against HCV J6/JFH/JC-1 infected in human Huh7.5 cells assessed as inhibition of NS3/4A A156T mutant levels at 20 uM treated with fresh media containing compound every 2 days by Western blot method; type: functional, organism-based; conditions: Hepacivirus hominis
[28] = target: Hepatitis C virus serine protease, NS3/NS4A (Hepatitis C virus) (UniProt D2K2A8+A3EZI9); assay: Inhibition of HCV NS3/4A protease at 200 uM; type: protein-complex assay; conditions: Hepacivirus hominis
[29] = system: Hepatitis C virus; assay: Antiviral activity against HCV J6/JFH/JC-1 infected in human Huh7.5 cells assessed as inhibition of NS3/4A levels at 10 uM treated with fresh media containing compound every 2 days in presence of NS5B inhibitor sofosbuvir by Western blot method; type: functional, organism-based; conditions: Hepacivirus hominis
[30] = system: Hepatitis C virus; assay: Antiviral activity against HCV J6/JFH/JC-1 infected in human Huh7.5 cells assessed as inhibition of viral core protein levels at 20 uM preincubated for 2 hrs followed addition of Huh7.5 cells for 4 hrs measured within 72 hrs by Western blot method; type: functional, organism-based; conditions: Hepacivirus hominis
[31] = system: Hepatitis C virus; assay: Antiviral activity against HCV J6/JFH/JC-1 infected in human Huh7.5 cells assessed as inhibition of NS3/4A levels at 10 uM treated with fresh media containing compound every 2 days in presence of NS5A inhibitor daclatasvir by Western blot method; type: functional, organism-based; conditions: Hepacivirus hominis
[32] = system: Hepatitis C virus; assay: Antiviral activity against HCV J6/JFH/JC-1 infected in human Huh7.5 cells assessed as inhibition of NS3/4A S282T mutant levels at 20 uM treated with fresh media containing compound every 2 days by Western blot method; type: functional, organism-based; conditions: Hepacivirus hominis
[33] = system: Hepatitis C virus; assay: Antiviral activity against HCV J6/JFH/JC-1 infected in human Huh7.5 cells assessed as inhibition of viral core protein levels at 10 uM treated with fresh media containing compound every 2 days in presence of NS5A inhibitor daclatasvir by Western blot method; type: functional, organism-based; conditions: Hepacivirus hominis
[34] = system: Hepatitis C virus; assay: Antiviral activity against HCV J6/JFH/JC-1 infected in human Huh7.5 cells harboring […] S282T mutant assessed as inhibition of viral core protein levels at 20 uM treated with fresh media containing compound every 2 days by Western blot method; type: functional, organism-based; conditions: Hepacivirus hominis

CN1CCN(S(=O)(=O)N2CCCC3=C[C@H]4C[C@H](CN5CCCC[C@H]45)[C@@H]32)CC1
1 h: Tmax [19]
> 1000 mg/kg: LD50 at 168 h [18]
> 140: selectivity ratio [8]
9.47 h: half-life [5]
6.11 h: MRT [25]
3.56 µM: EC50 [21]
inactive: inhibition [28]
7.6 µM·h: AUC(0-t) [6]
1370 nM: Cmax [26]
> 500 µM: CC50 at 72 h [15]
active: inhibition [1] | inhibition [2] | inhibition [3] | inhibition [4] | inhibition [7] Dose-dependent effect | inhibition [9] | inhibition [10] | inhibition [11] Tde | inhibition [12] Tde | inhibition [13] Dose-dependent effect | inhibition [14] | inhibition [16] | inhibition [17] | inhibition [20] | inhibition [22] | inhibition [23] | inhibition [24] | inhibition [27] | inhibition [29] | inhibition [30] | inhibition [31] | inhibition [32] | inhibition [33] | inhibition [34]
